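Method: 48-hour compound exposure of cells in 96-well plates, five concentrations, linear interpolation of endpoints. At the GI50, growth is halved.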 The source made the active and inactive calls. Rule as the data show it: active = GI50 up to about 1.1 µM and inactive = higher.
Experiments:
Experiment in all cases: inhibition of tumour cell growth, NCI panel, 48 h
DU-145 = test system: DU-145
EKVX = test system: EKVX
HCT-116 = test system: HCT-116
HCT-15 = test system: HCT-15
HOP-92 = test system: HOP-92
HT-29 = test system: HT-29
MCF7 = test system: MCF7
MDA-MB-231 = test system: MDA-MB-231
NCI-H460 = test system: NCI-H460
NCI/ADR-RES = test system: NCI/ADR-RES
OVCAR-3 = test system: OVCAR-3
SF-539 = test system: SF-539
SK-MEL-5 = test system: SK-MEL-5
SNB-75 = test system: SNB-75
UACC-257 = test system: UACC-257
UACC-62 = test system: UACC-62
BT-549 = test system: BT-549
SNB-19 = test system: SNB-19
LOX IMVI = test system: LOX IMVI
Malme-3M = test system: Malme-3M

CCCCc1ccc(C#CC#Cc2ccc(CCCC)s2)s1
GI50 (DU-145): > 100 µM (inactive)
GI50 (EKVX): > 100 µM (inactive)
GI50 (HCT-116): > 100 µM (inactive)
GI50 (HCT-15): > 100 µM
GI50 (HOP-92): > 100 µM (inactive)
GI50 (HT-29): > 100 µM (inactive)
GI50 (MCF7): > 100 µM (inactive)
GI50 (MDA-MB-231): > 100 µM (inactive)
GI50 (NCI-H460): > 100 µM (inactive)
GI50 (NCI/ADR-RES): > 100 µM (inactive)
GI50 (OVCAR-3): > 100 µM (inactive)
GI50 (SF-539): > 100 µM (inactive)
GI50 (SK-MEL-5): > 100 µM (inactive)
GI50 (SNB-75): > 100 µM (inactive)
GI50 (UACC-257): > 100 µM (inactive)
GI50 (UACC-62): > 100 µM (inactive)

Clc1ccc2nc3[nH]nc(Cl)c3nc2c1
GI50 (BT-549): 28.4 µM (inactive)
GI50 (DU-145): 50.7 µM (inactive)
GI50 (EKVX): 16.7 µM (inactive)
GI50 (HCT-116): 42.9 µM (inactive)
GI50 (HCT-15): > 100 µM
GI50 (HT-29): 59.3 µM (inactive)
GI50 (MCF7): 59.8 µM (inactive)
GI50 (MDA-MB-231): 57.7 µM (inactive)
GI50 (NCI-H460): 40.1 µM (inactive)
GI50 (NCI/ADR-RES): 56.2 µM (inactive)
GI50 (OVCAR-3): 66.8 µM (inactive)
GI50 (SF-539): 40.8 µM (inactive)
GI50 (SK-MEL-5): 27.1 µM (inactive)
GI50 (SNB-19): 45.6 µM (inactive)
GI50 (SNB-75): 48.6 µM (inactive)
GI50 (UACC-257): 66.8 µM (inactive)
GI50 (UACC-62): 45.3 µM (inactive)

CC(C)Oc1cccc(N2C(NCCc3c[nH]c4ccccc34)=Nc3ccncc3S2(=O)=O)c1
GI50 (BT-549): 61.1 µM (inactive)
GI50 (DU-145): 22.5 µM (inactive)
GI50 (EKVX): 72.8 µM (inactive)
GI50 (HCT-116): 6.71 µM (inactive)
GI50 (HCT-15): 4.98 µM
GI50 (HOP-92): 8.45 µM (inactive)
GI50 (HT-29): 5.01 µM (inactive)
GI50 (LOX IMVI): 52.1 µM (inactive)
GI50 (MCF7): 4.73 µM (inactive)
GI50 (Malme-3M): 32.4 µM (inactive)
GI50 (NCI-H460): 6.53 µM (inactive)
GI50 (NCI/ADR-RES): 29.9 µM (inactive)
GI50 (OVCAR-3): 11.7 µM (inactive)
GI50 (SF-539): 33.7 µM (inactive)
GI50 (SK-MEL-5): 9.59 µM (inactive)
GI50 (SNB-19): > 100 µM (inactive)
GI50 (SNB-75): 8.05 µM (inactive)
GI50 (UACC-257): 9.53 µM (inactive)
GI50 (UACC-62): 31 µM (inactive)

OC(c1cc2ccccc2o1)c1cc2ccccc2s1 (centres undefined)
GI50 (DU-145): > 10 µM (inactive)
GI50 (EKVX): 7.23 µM (inactive)
GI50 (HCT-116): > 10 µM (inactive)
GI50 (HCT-15): > 10 µM
GI50 (HOP-92): > 10 µM (inactive)
GI50 (HT-29): > 10 µM (inactive)
GI50 (LOX IMVI): > 10 µM (inactive)
GI50 (MCF7): 9.44 µM (inactive)
GI50 (MDA-MB-231): > 10 µM (inactive)
GI50 (NCI-H460): > 10 µM (inactive)
GI50 (NCI/ADR-RES): > 10 µM (inactive)
GI50 (OVCAR-3): > 10 µM (inactive)
GI50 (SF-539): > 10 µM (inactive)
GI50 (SK-MEL-5): > 10 µM (inactive)
GI50 (SNB-19): > 10 µM (inactive)
GI50 (SNB-75): > 10 µM (inactive)
GI50 (UACC-257): > 10 µM (inactive)
GI50 (UACC-62): > 10 µM (inactive)

CCCCSC1=N/C(=C\c2ccco2)C(=O)N1
GI50 (BT-549): 33.2 µM (inactive)
GI50 (DU-145): 67.8 µM (inactive)
GI50 (EKVX): 36.6 µM (inactive)
GI50 (HCT-116): 56.1 µM (inactive)
GI50 (HCT-15): 34.6 µM
GI50 (HT-29): 47.6 µM (inactive)
GI50 (MCF7): 0.687 µM (active)
GI50 (MDA-MB-231): 99.8 µM (inactive)
GI50 (Malme-3M): 29.2 µM (inactive)
GI50 (NCI-H460): 39.5 µM (inactive)
GI50 (NCI/ADR-RES): 31.9 µM (inactive)
GI50 (OVCAR-3): 48.4 µM (inactive)
GI50 (SK-MEL-5): 35.4 µM (inactive)
GI50 (SNB-19): 63.8 µM (inactive)
GI50 (SNB-75): 25.9 µM (inactive)
GI50 (UACC-257): 34.8 µM (inactive)
GI50 (UACC-62): 42.1 µM (inactive)

Cc1c(/C=N\NC(=S)N2CCN(C(=S)N/N=C\c3c(C)n(C)n(-c4ccccc4)c3=O)CC2)c(=O)n(-c2ccccc2)n1C
GI50 (BT-549): 44 µM (inactive)
GI50 (DU-145): 56 µM (inactive)
GI50 (EKVX): 71.6 µM (inactive)
GI50 (HCT-116): 49.5 µM (inactive)
GI50 (HCT-15): 46.9 µM
GI50 (HOP-92): 40.9 µM (inactive)
GI50 (HT-29): 13.1 µM (inactive)
GI50 (MDA-MB-231): 24 µM (inactive)
GI50 (Malme-3M): 72.4 µM (inactive)
GI50 (NCI-H460): 42 µM (inactive)
GI50 (NCI/ADR-RES): > 100 µM (inactive)
GI50 (OVCAR-3): 51.9 µM (inactive)
GI50 (SF-539): > 100 µM (inactive)
GI50 (SK-MEL-5): > 100 µM (inactive)
GI50 (SNB-19): 47.5 µM (inactive)
GI50 (SNB-75): 21.8 µM (inactive)
GI50 (UACC-257): 26.8 µM (inactive)
GI50 (UACC-62): 32.9 µM (inactive)

O=C1CSCC(=O)Nc2ccccc2N1
GI50 (BT-549): > 100 µM (inactive)
GI50 (DU-145): > 100 µM (inactive)
GI50 (EKVX): > 100 µM (inactive)
GI50 (HCT-116): > 100 µM (inactive)
GI50 (HCT-15): > 100 µM
GI50 (HOP-92): > 100 µM (inactive)
GI50 (HT-29): > 100 µM (inactive)
GI50 (LOX IMVI): > 100 µM (inactive)
GI50 (MDA-MB-231): > 100 µM (inactive)
GI50 (Malme-3M): > 100 µM (inactive)
GI50 (NCI-H460): > 100 µM (inactive)
GI50 (NCI/ADR-RES): > 100 µM (inactive)
GI50 (OVCAR-3): > 100 µM (inactive)
GI50 (SF-539): > 100 µM (inactive)
GI50 (SK-MEL-5): > 100 µM (inactive)
GI50 (SNB-19): > 100 µM (inactive)
GI50 (UACC-257): > 100 µM (inactive)
GI50 (UACC-62): > 100 µM (inactive)

O=S(=O)(c1ccc(NC(=S)N/N=C/c2ccccc2O)cc1)N1CCCCC1
GI50 (BT-549): 37.8 µM (inactive)
GI50 (EKVX): 1.29 µM (inactive)
GI50 (HCT-15): < 0.01 µM
GI50 (HOP-92): 12.2 µM (inactive)
GI50 (HT-29): 7.73 µM (inactive)
GI50 (LOX IMVI): < 0.01 µM (active)
GI50 (MCF7): 0.255 µM (active)
GI50 (Malme-3M): 0.181 µM (active)
GI50 (NCI/ADR-RES): 0.0676 µM (active)
GI50 (OVCAR-3): < 0.0498 µM (active)
GI50 (SF-539): 0.326 µM (active)
GI50 (SK-MEL-5): < 0.01 µM (active)
GI50 (SNB-19): 0.879 µM (active)
GI50 (SNB-75): 1.36 µM (inactive)
GI50 (UACC-257): 0.735 µM (active)
GI50 (UACC-62): < 0.01 µM (active)
